The test system of the first experiment is agonist-dependent nuclear export of HDAC5. The experiment can be described thus: HDAC5 nuclear export assay (GFP-HDAC5, Cellomics imaging). Format: cell-based. As to conditions: Rattus norvegicus, Ventricular myocyte, 2 h, neonatal rat ventricular myocytes, PGF2α stimulation, two hours; read-out: Inhibitory Activity HDAC. The method, then: Compounds are evaluated in the HDAC5 nuclear export assay, a 384-well plate-based assay that enables high throughput screening (HTS) to identify small molecules that block agonist-dependent nuclear export of HDAC5. […] Neonatal rat ventricular myocytes (NRVMs) are infected with GFP-HDAC5 encoding virus and plated on gelatin-coated 384-well dishes. […] Following two hours of stimulation, cells are fixed and GFP-HDAC5 localization quantified using the Cellomics system, which provides a read-out of relative fluorescence intensity in the cytoplasmic versus nuclear compartment.
For `NC(=O)c1cc(-c2ccnc(NC3CCCCC3)c2)nc(N2CCN3CCC[C@@H]3C2)c1` [2′-Cyclohexylamino-6-(R)-hexahydro-pyrrolo[1,2-a]pyrazin-2-yl-[2,4′]bipyridinyl-4-carboxylic acid amide], the IC50 is 616 nM. For `N#CCNC(=O)c1ccc(-c2ccnc(NC3CCCCC3)c2)nc1N1CCNCC1` [2′-Cyclohexylamino-6-piperazin-1-yl-[2,4′]bipyridinyl-5-carbonxylic acid cyanomethyl-amide], the IC50 is > 1000 nM. Take `COC(=O)c1ccc(-c2ccnc(NC3CCCCC3)c2)nc1N1CCNCC1` [2′-Cyclohexylamino-6-piperazin-1-yl-[2,4′]bipyridinyl-5-carboxylic acid methyl ester]: the IC50 was > 1000 nM.

In the case of `O=C1NCc2c1cc(-c1ccnc(NC3CCCCC3)c1)nc2N1CCn2cnnc2C1` [6-(2-Cyclohexylamino-pyridin-4yl)-4-(5,6-dihydro-8H-[1,2,4]triazolo[4,3-a]pyrazin-7-yl)-2,3-dihydro-pyrrolo[3,4-c]pyridin-1-one], the IC50 was > 1000 nM.

In the case of `c1cc(-c2cc(-c3nnco3)cc(N3CCNCC3)n2)cc(NC2CCCCC2)n1` [Cyclohexyl-(4-[1,3,4]oxadiazol-2-yl-6-piperazin-1-yl-[2,4′]bipyridinyl-2′-yl)-amine], the IC50 was found to be 126 nM. In the case of `CS(=O)(=O)c1cc(-c2ccnc(NC3CCCCC3)c2)nc(N2CCNCC2)c1` [Cyclohexyl-(4-methanesulfonyl-6-piperazin-1-yl-[2,4′]bipyridinyl-2′-yl)-amine], the IC50 was > 1000 nM. On the same count and under the same terms, then `O=[N+]([O-])c1cc(-c2ccnc(NC3CCCCC3)c2)nc(N2CCNCC2)c1` [Cyclohexyl-(4-nitro-6-piperazin-1-yl-[2,4′]bipyridinyl-2′-yl)-amine], with 235 nM. With `Nc1cc(-c2ccnc(NC3CCCCC3)c2)nc(N2CCNCC2)c1` [N*2′*-Cyclohexyl-6-piperazin-1-yl-[2,4′]bipyridinyl-4,2′-diamine], the IC50 is 421 nM. Consider `Fc1ccc(Nc2cc(-c3ccnc(NC4CCCCC4)c3)nc(N3CCNCC3)c2)cc1` [N*2′*-Cyclohexyl-N*4*-(4-fluoro-phenyl)-6-piperazin-1-yl-[2,4′]bipyridinyl-4,2′-diamine], for which the IC50 turned out to be 423 nM.

The experiment is the same for the next values; noted with them: Rattus norvegicus, Ventricular myocyte, 2 h, read-out: Inhibitory Activity HDAC.
Consider `FC(F)(F)c1cc(-c2ccnc(NC3CCCCC3)c2)nc(N2CCNCC2)c1` [Cyclohexyl-(6-piperazin-1-yl-4-trifluoromethyl-[2,4′]bipyridinyl-2′-yl)amine], for which the IC50 turned out to be 342 nM.

The values above are taken from patent US20110092505A1, “ORGANIC COMPOUNDS” (priority 2008, published 2011).
